The values that follow are results of earlier work, collected in patent publication US20060024247A1, “Oral care formulations comprising highly bioavailable Coenzyme Q-10 cyclodextrin complex” (BioActives, LLC, priority 2004, published 2006).

For the molecule `COC1=C(OC)C(=O)C(C/C=C(\C)CC/C=C(\C)CC/C=C(\C)CC/C=C(\C)CC/C=C(\C)CC/C=C(\C)CC/C=C(\C)CC/C=C(\C)CC/C=C(\C)CCC=C(C)C)=C(C)C1=O` [CoQ-10, Coenzyme Q-10], the bioavailability result was “very poor” and the solubility in water result is listed as “practically insoluble in water”.
